In general, Kd refers to the constant that tells how readily two partners part at equilibrium.

The results in this text go back to article PMC3074303 (Biochemistry, 2010).

This test deals with arrestin-1 (visual arrestin) (Bos taurus, UniProt P08168, F197A/F85A). Description: 2D 1H-15N TROSY NMR chemical shift titration fitted to a […] model. Format: binding.
Sequence of arrestin-1 (visual arrestin) (P08168 whole entry F85A/F197A): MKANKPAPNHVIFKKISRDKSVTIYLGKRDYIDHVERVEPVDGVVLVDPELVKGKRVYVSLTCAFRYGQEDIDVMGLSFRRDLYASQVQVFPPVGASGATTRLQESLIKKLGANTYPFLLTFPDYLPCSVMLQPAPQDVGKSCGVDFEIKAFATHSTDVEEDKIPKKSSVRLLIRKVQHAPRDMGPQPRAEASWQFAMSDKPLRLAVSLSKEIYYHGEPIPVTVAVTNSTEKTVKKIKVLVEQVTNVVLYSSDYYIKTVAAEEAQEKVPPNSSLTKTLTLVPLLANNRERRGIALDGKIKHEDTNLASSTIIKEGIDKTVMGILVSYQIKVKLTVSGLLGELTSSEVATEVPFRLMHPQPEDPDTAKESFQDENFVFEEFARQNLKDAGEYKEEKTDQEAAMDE

Consider `O=P(O)(O)O[C@H]1[C@H](OP(=O)(O)O)[C@@H](OP(=O)(O)O)[C@H](OP(=O)(O)O)[C@@H](OP(=O)(O)O)[C@H]1OP(=O)(O)O` [IP6], for which the Kd came out at 160 ± 60 µM.
